In test [1] the target is T1, MOZ-KAT6A (Homo sapiens, UniProt Q92794, A567V).
T1 construct: encoding amino acid residues 507 to 778 (Uniprot Q92794-1) of human KAT6A; made in house; host or cells: E. coli BL21 DE3
Nature of the test: Revised Acetyltransferase Biochemical Assay, KAT6A. The note with it: Table 8 (MOZ-KAT6A), 1 μM Acetyl coenzyme A.

Test [2] addresses T2, TIP60-KAT5 (Homo sapiens, UniProt Q92993).
T2 construct: encoding amino acid residues 2 to 461 (Uniprot Q92993-2) of human KAT5 isoform; made in house; host or cells: E. coli BL21 DE3
Nature of the test: Acetyltransferase biochemical assay (AlphaScreen), KAT5. Conditions: Table 1 (TIP60-KAT5); 0.4 μM Acetyl coenzyme A, histone H4, 10 nM enzyme. In general terms: Bead proximity is the source of the signal in Alpha formats.

The target of test [3] is T3, MOF-KAT8 (Homo sapiens, UniProt Q9H7Z6).
T3 sequence (Q9H7Z6 177-447): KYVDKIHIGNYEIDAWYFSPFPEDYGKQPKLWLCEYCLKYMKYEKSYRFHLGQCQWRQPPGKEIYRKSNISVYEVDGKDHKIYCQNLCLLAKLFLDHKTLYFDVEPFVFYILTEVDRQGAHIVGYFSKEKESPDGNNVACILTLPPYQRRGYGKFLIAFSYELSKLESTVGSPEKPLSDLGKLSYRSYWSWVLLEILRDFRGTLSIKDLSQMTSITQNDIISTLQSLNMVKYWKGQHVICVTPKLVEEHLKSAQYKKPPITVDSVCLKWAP
Nature of the test: Revised Acetyltransferase Biochemical Assay, KAT8.

Test [4] relates to histone H3K23 acetylation (KATE mediated) in U2OS cells. Nature of the test: Histone H3 Lysine 23 Acetylation Biomarker Assay (U2OS). The format is cell-based. Conditions: Homo sapiens, 96 well, 24 hours incubation. The method, then:
Compounds may be tested for their ability to inhibit acetylation of the histone H3K23 marker, which is KATE mediated, in the following assay:
The cell line U2OS was seeded at a density of 9,000 cells per well in 96 well optical quality tissue culture plates in RPMI medium and 10% foetal bovine serum, and allowed to adhere for 24 hours under standard culture conditions (37 degree Celsius, 5% CO2). At the end of this period the medium was aspirated. Compound dilutions prepared in DMSO were added to medium, with negative control wells reserved for treatment with DMSO only and 100% inhibition positive controls receiving a potent inhibitor compound (e.g. cas 2055397-28-7, benzoic acid, 3-fluoro-5-(2-pyridinyl)-, 2-[(2-fluorophenyl)sulfonyl]hydrazide) (Baell, J., Nguyen, H. N., Leaver, D. J., Cleary, B. L., Lagiakos, H. R., Sheikh, B. N., Thomas. T. J., Aryl sulfonohydrazides, WO2016198507A1, 2016) at 10 μM concentration and 200 μL transferred to the cells. After incubation for 24 hours, the cells were fixed with 3.7% formaldehyde in PBS for 20 minutes at room temperature, washed (5×5 minutes) with phosphate buffer saline containing 0.1% Tween 20 and blocked with Odyssey blocking buffer (LI-COR, Lincoln, Nebr.) containing 0.1% TritonX100. Anti-H3K23ac specific antibody (Abcam ab177275) in Odyssey blocking buffer containing 0.1% Tween 20 was added and incubated for 16 hours at 4 degree Celsius. After washing (as above), a secondary antibody labelled with Alexa647 dye (LifeTechnologies) and Hoechst 33342 (1 μg/mL, SigmaAldrich) were added for 1 hour incubation. Plates were washed as previously and read on a PerkinElmer Phenix high content imaging platform. Using a Columbus image analysis pipeline, individual nuclei were located by Hoechst 33342 stain and the acetylation level was calculated from the Alexa647-related intensity in the same area. The resulting mean intensity per cell was directly converted to percent inhibition relative to controls on the same plate and the data fitted against a four-parameter logistic model to determine the 50% inhibitory concentration (IC50).

Test [5] addresses T4, HBO-KAT7 (Homo sapiens, UniProt O95251).
T4 construct: encoding amino acid residues 325 to 611 (Uniprot 095251-1) of human KAT7; made in house; host or cells: E. coli BL21 DE3 RIL
Nature of the test: Acetyltransferase biochemical assay (AlphaScreen), KAT7. The note with it: Table 3 (HBO-KAT7); 0.4 μM Acetyl coenzyme A, histone H3.1, 40 nM enzyme.

Test [6] deals with T5, QKF-KAT6B (Homo sapiens, UniProt Q8WYB5).
T5 construct: purchased SignalChem K315-381BG
T5 sequence (Q8WYB5 whole entry): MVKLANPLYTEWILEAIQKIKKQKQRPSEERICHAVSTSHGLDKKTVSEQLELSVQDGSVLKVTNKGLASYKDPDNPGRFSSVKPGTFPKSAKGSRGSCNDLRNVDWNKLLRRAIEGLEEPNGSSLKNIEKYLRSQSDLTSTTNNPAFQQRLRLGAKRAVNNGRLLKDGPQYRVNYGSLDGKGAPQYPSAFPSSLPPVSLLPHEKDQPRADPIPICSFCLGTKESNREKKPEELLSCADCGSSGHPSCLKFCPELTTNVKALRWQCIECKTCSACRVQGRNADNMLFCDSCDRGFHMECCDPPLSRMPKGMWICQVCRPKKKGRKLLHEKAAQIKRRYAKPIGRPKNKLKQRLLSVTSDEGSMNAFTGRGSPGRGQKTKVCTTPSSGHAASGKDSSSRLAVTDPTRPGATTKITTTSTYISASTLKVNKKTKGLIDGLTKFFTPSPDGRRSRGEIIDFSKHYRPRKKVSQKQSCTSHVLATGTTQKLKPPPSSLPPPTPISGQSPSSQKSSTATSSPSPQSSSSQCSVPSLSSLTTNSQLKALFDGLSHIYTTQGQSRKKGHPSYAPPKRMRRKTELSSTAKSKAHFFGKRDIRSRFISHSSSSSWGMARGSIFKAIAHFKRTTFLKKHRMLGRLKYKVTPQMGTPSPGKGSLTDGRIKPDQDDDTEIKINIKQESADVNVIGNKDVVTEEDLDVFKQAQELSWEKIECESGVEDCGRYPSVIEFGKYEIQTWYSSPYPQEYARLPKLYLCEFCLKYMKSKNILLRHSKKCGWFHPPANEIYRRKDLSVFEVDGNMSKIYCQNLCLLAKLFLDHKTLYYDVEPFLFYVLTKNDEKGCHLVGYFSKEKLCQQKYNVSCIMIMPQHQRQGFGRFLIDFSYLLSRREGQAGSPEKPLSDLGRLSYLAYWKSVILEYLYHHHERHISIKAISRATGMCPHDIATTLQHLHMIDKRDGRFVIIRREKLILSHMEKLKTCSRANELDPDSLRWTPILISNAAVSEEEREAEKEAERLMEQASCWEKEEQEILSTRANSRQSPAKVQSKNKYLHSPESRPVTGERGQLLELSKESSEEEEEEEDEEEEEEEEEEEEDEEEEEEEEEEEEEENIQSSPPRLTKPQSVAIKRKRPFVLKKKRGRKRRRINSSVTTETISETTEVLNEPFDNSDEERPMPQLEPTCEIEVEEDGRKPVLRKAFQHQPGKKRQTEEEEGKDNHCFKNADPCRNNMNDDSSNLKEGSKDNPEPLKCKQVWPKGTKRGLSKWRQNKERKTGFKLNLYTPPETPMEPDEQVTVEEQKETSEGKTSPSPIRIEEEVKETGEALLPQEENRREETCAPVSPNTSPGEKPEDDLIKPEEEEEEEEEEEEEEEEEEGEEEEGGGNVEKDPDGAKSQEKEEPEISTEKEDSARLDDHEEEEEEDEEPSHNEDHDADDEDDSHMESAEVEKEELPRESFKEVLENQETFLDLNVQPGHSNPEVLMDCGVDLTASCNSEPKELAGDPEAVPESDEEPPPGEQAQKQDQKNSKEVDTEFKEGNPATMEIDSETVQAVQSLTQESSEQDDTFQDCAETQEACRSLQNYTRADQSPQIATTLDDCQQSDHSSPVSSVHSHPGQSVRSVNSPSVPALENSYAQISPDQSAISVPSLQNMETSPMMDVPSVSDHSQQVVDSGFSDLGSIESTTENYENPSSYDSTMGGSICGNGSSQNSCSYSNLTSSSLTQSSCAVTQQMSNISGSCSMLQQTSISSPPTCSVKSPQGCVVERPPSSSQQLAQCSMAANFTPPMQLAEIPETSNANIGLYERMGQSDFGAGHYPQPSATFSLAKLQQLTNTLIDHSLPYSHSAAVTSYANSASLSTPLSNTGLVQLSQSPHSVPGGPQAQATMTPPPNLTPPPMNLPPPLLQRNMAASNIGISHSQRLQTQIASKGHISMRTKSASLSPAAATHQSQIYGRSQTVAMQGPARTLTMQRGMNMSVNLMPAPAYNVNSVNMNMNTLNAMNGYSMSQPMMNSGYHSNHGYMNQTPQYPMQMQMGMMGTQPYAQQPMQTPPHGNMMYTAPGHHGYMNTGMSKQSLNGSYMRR
Nature of the test: Revised Acetyltransferase Biochemical Assay, KAT6B. Conditions: 8 nM KAT6B, 1 μM AcCoA, 100 nM histone H3.1, 90 min. From the text:
KAT6B was obtained from SignalChem, catalog ID: K315-381BG

For test [7], the target named is T4, HBO-KAT7. Nature of the test: Revised Acetyltransferase Biochemical Assay, KAT7. The note with it: Table 9 (HBO-KAT7), 1 μM Acetyl coenzyme A.
The target of test [8] is T2, TIP60-KAT5. Nature of the test: Revised Acetyltransferase Biochemical Assay, KAT5. The note with it: 10 nM KAT5, 1 μM AcCoA, 100 nM histone H4, 90 min.
For test [9], the target named is T3, MOF-KAT8. Nature of the test: Acetyltransferase biochemical assay (AlphaScreen), KAT8. Conditions: Table 4 (MOF-KAT8); 0.4 μM Acetyl coenzyme A, histone H4, 20 nM enzyme.
Test [10] relates to histone H2A.Z Lysine 7 acetylation (TIP60 mediated) in U2OS cells. Nature of the test: H2A.Z Lysine 7 Acetylation Biomarker Assay (384-well, U2OS). The test is classed as cell-based. The note with it: Homo sapiens, serum free medium, 24 hours incubation. Summed up: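 U2OS cells (3,000/well) were treated with compound for 24 h after a serum-free wash, then fixed. They were stained with anti-H2A.ZK7ac, an AlexaFluor 488 secondary and Hoechst. High-content imaging gave mean nuclear intensity per cell, converted to percent inhibition against on-plate controls, and IC50 came from a four-parameter logistic fit.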

Test [11] has as its system histone H3 Lysine 14 acetylation (HBO1 mediated) in U2OS cells. Nature of the test: Histone H3 Lysine 14 Acetylation Biomarker Assay (384-well, U2OS). The test is classed as cell-based. The note with it: Homo sapiens, serum free medium, 24 hours incubation. The method, then:
Compounds may be tested for their ability to inhibit acetylation of the histone H3 Lysine 14 (which is HBO1 mediated) marker in the following assay:
The cell line U2OS was seeded at a density of 3,000 cells per well in 384-well optical quality tissue culture plates in RPMI medium supplemented with 10% foetal bovine serum and 10 mM Hepes. The cells were allowed to adhere for 24 hours under standard culture conditions (37 degree Celsius, 5% CO2). At the end of this period the cells were washed with serum free medium. Compound dilutions prepared in DMSO were added to the serum free medium, with negative control wells reserved for treatment with DMSO only and 100% inhibition positive controls receiving a potent inhibitor compound (e.g. (Z)-4-fluoro-N-((3-hydroxyphenyl)sulfonyl)-5-methyl-[1,1′-biphenyl]-3-carbohydrazonic acid) at 10 μM concentration. After incubation for 24 hours, the cells were fixed with 4% formaldehyde in PBS for 15 minutes at room temperature, washed with phosphate buffer saline and blocked with blocking buffer containing 0.2% TritonX100 and 2% BSA. Anti-H3K14ac specific antibody (Cell Signalling Technologies) in blocking buffer was added and incubated overnight at 4 degree Celsius. After washing, a secondary antibody labelled with AlexaFluor 488 dye (ThermoFisher) and Hoechst 33342 (1 μg/mL, Life Technologies) were added for 2 hours incubation at room temperature. Plates were washed and read on a
PerkinElmer Opera HCS high content imaging platform. Using a Columbus image analysis pipeline, individual nuclei were located by Hoechst 33342 stain and the acetylation level was calculated from the AlexaFluor 488-related intensity in the same area. The resulting mean intensity per cell was converted to percent inhibition relative to controls on the same plate and the data fitted against a four-parameter logistic model to determine the 50% inhibitory concentration (IC50).

The values below come from patent US20210380548A1, “Fused [1,2,4]Thiadiazine Derivatives Which Act as KAT Inhibitors of the MYST Family” (CTxT Pty Limited, priority 2017, published 2021).

SMILES strings stand for the structures.

T4 sequence (O95251 with tags, fused parts or gaps): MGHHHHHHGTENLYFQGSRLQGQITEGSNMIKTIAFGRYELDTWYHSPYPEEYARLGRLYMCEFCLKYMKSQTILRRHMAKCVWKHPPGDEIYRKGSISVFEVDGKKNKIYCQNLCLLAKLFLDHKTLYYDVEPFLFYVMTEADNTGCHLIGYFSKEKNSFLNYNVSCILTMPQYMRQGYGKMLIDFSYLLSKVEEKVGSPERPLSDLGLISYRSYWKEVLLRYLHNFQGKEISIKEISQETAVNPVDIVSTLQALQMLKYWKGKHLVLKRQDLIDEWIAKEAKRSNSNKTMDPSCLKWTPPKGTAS
T1 sequence (Q92794 507-778 A567V limits assumed): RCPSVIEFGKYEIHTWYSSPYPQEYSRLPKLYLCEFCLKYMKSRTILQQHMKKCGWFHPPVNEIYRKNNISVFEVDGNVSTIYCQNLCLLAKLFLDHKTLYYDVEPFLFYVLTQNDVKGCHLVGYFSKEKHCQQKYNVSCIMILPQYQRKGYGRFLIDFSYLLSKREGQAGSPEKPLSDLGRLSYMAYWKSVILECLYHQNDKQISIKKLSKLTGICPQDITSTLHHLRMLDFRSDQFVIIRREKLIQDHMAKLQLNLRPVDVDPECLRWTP
T2 sequence (Q92993 2-461 isoform Q92993-2): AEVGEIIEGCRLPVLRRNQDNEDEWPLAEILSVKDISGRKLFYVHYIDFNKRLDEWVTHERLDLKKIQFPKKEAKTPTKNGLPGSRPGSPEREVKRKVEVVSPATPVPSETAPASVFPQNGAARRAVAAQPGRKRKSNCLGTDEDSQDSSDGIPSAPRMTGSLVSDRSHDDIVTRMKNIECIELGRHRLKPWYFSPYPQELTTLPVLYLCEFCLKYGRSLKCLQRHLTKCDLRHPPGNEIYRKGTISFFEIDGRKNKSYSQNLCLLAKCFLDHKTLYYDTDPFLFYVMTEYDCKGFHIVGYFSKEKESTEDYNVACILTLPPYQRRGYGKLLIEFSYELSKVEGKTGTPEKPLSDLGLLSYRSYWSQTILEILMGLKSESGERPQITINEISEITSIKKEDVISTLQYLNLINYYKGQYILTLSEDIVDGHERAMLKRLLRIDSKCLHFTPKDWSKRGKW

Take `COCc1ccccc1CCNC(=O)C1=Nc2ccc(I)cc2S(=O)(=O)N1` [Example 14, 7-Iodo-N-(2-(methoxymethyl)phenethyl)-2H-benzo[e][1,2,4]thiadiazine-3-carboxamide 1,1-dioxide]: the IC50 in [1] came to 10 nM; in [2] it was 2360 nM; in test [3], 37800 nM; in test [4], 1060 nM; in [5], 1780 nM; in [6], 58 nM. The IC50 turned out to be 83 nM in test [7] and 156 nM in test [8].
`O=C(NCC(c1ccccc1)c1ncc[nH]1)C1=Nc2ccccc2S(=O)(=O)N1` (stereo not drawn) [Example 113]: the IC50 in test [1] was 99000 nM; in test [2], more than 125000 nM; in test [3], more than 125000 nM; in [4], more than 10000 nM; in test [6] it was more than 125000 nM; in test [7] it was 6410 nM. The IC50 in test [8] is more than 125000 nM.
`COc1cc(C)cc(C(CNC(=O)C2=Nc3ccc(Cl)cc3S(=O)(=O)N2)c2ncco2)c1` (stereo not drawn) [Example 159, 7-chloro-N-(2-(3-methoxy-5-methylphenyl)-2-(oxazol-2-yl)ethyl)-2H-benzo[e][1,2,4]thiadiazine-3-carboxamide 1,1-dioxide]: the concentration for half-maximal inhibition (IC50) in test [1] was found to be 371 nM; in test [3] it was 16300 nM; in test [4] it was 5090 nM; in [6] it was 4050 nM; in test [7], 295 nM; in test [8], 3200 nM.
Regarding `O=C(NCC(F)(c1ccccc1)c1ncco1)C1=Nc2ccc(Cl)cc2S(=O)(=O)N1` (stereo not drawn) [Example 175], the IC50 in test [1] worked out at 13 nM; in [3], 30200 nM; in test [9] it was 29300 nM; in test [4], 154 nM; in [5], 162 nM; in test [7], 478 nM. Further, the IC50 is 311 nM in [8], 11900 nM in test [10] and 1840 nM in test [11].
As for `O=C(NCC(F)(c1ccccc1)c1ncco1)C1=Nc2ccc(I)cc2S(=O)(=O)N1` (stereo not drawn) [Example 177], the 50% inhibitory concentration (IC50) in test [1] is 4 nM; in test [3], 8210 nM; in test [9] it was 6250 nM; in [4], 195 nM; in test [5] it was 64 nM; in [7], 124 nM. Also, the concentration for half-maximal inhibition (IC50) in [8] is 23 nM; in test [10], 1180 nM; in test [11], 1030 nM.
Take `O=C(NCC(c1ccccc1)c1n[nH]c(=O)o1)C1=Nc2ccc(I)cc2S(=O)(=O)N1` (stereo not drawn) [Example 186]: the IC50 in test [1] is 24 nM; in test [9], 71500 nM; in test [4] it was more than 10000 nM; in test [7] it was 1960 nM; in [8] it was 734 nM; in test [10], more than 40000 nM. Further, the IC50 in test [11] is more than 40000 nM.
For the compound `Cn1nc(-c2ccccc2CCNC(=O)C2=Nc3ccc(Cl)cc3S(=O)(=O)N2)oc1=O` [Example 193], the concentration for half-maximal inhibition (IC50) in [1] is 493 nM; in [4] it was 9080 nM; in test [7] it was 1940 nM; in test [8] it was 4170 nM; in [10], more than 40000 nM; in test [11], 31200 nM.
Turning to `O=C(NCC1(c2ccccn2)CCCCC1)C1=Nc2ccc(Cl)cc2S(=O)(=O)N1` [Example 197], the IC50 in [1] turned out to be 290 nM; in test [4], 3040 nM; in test [6], 780 nM; in test [7], 7530 nM; in test [8] it was 23600 nM.
For `O=C(NCC1(c2ccccn2)CCCC1)C1=Nc2ccc(Cl)cc2S(=O)(=O)N1` [Example 198], in that order: 351 nM, 5200 nM, 1380 nM, 8370 nM and 42300 nM.
Consider `O=C(NCC(CO)C1CCCCC1)C1=Nc2ccc(Cl)cc2S(=O)(=O)N1` (stereo not drawn) [Example 199], for which the IC50 in test [1] came out at 838 nM; in [4], 10000 nM; in test [6], 6170 nM; in test [7], 6570 nM; in [8], 15600 nM.
The matching figures for `O=C(NCCC1CCCCC1)C1=Nc2ccc(Cl)cc2S(=O)(=O)N1` [Example 202]: 1040 nM, more than 10000 nM, more than 125000 nM, more than 125000 nM and more than 125000 nM.
As to `Cc1cc(O)cc(C(CNC(=O)C2=Nc3ccc(I)cc3S(=O)(=O)N2)c2ncco2)c1` (stereo not drawn) [Example 222, N-(2-(3-Hydroxy-5-methylphenyl)-2-(oxazol-2-yl)ethyl)-7-iodo-2H-benzo[e][1,2,4]thiadiazine-3-carboxamide 1,1-dioxide], the concentration for half-maximal inhibition (IC50) in [1] was 131 nM; in [4], 7150 nM; in test [7] it was 23 nM; in test [8], 149 nM; in test [10] it was 1280 nM; in test [11], 437 nM.

As a reminder, the IC50 is the midpoint of a concentration-inhibition curve. The low end stands for inhibition by little substance, the high end for a need for much substance.
